{"source": "patent US10429384B2", "about": "“Compositions, kits, and methods for identification, assessment, prevention, and therapy of metabolic disorders” (Dana-Farber Cancer Institute, Inc., priority 2010, dated 2019)", "key": {"high-fat fed mice": {"system": "high-fat fed mice", "assay": "Glucose tolerance, fasting insulin and body weight in high-fat fed mice", "settings": "10 mg/kg for 7 days", "protocol": "4 to 5-week old male C57BL/6J mice were obtained from the Jackson Laboratory. Mice were fed a regular diet (10% kcal fat, D12450B, Research Diets Inc.) or a high fat diet (60% kcal fat, D12492, Research Diets Inc.) as indicated time periods. […] Glucose was measured in tail vain blood at intervals after glucose injection using a Truetrack glucometer. Serum insulin concentrations were determined by ELISA (Crystal Chem)."}, "[1]": {"molecular_target": "T1, wild type PPAR gamma (cdk5-mediated phosphorylation) (Mus musculus, UniProt P37238)", "T1 construct": "expressed in transfected cells; host or cells: 3T3-L1 adipocytes", "T1 sequence (P37238 1-505)": "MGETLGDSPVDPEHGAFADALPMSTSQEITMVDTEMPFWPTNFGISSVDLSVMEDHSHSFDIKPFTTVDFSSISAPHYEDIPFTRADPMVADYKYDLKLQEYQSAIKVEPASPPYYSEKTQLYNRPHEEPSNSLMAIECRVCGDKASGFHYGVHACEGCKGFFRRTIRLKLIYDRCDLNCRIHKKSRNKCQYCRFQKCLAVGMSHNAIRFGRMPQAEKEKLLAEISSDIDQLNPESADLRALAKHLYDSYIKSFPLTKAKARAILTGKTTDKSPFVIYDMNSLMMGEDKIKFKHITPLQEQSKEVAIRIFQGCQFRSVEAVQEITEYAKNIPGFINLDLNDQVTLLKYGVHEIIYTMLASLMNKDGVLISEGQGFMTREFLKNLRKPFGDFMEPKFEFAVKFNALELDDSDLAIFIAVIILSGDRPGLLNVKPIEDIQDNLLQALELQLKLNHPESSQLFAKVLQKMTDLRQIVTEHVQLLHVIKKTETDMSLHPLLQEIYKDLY", "assay": "TNF-α-induced phosphorylation of PPAR gamma in 3T3-L1 adipocytes expressing wild type PPAR gamma", "type": "cell-based", "settings": "combined with rosiglitazone, FIG. 5A", "protocol": "HEK-293 cells expressing CDK5 or PPAR gamma were collected after transfection. Total cell lysates were incubated with FLAG M2 agarose (Sigma) at 4° C. Immunoprecipitates or total cell lysates were analyzed with anti-CDK substrate, FLAG or HA (Roche) antibodies. Differentiated 3T3-L1 adipocytes were treated with TNF-α (50 ng/ml), IL-6 (50 ng/ml), IL-10 (50 ng/ml) or FFAs (400 μM palmitic acid and oleic acid mixtures) for the indicated times, and cell lysates were analyzed with phospho-specific or PPAR gamma antibodies. 3T3-L1 adipocytes were pre-treated with various PPAR gamma ligands, and incubated with TNF-α. For tissue lysates, WAT from mice was homogenized in RIPA buffer (50 mM Tris pH7.5, 150 mM NaCl, 1% NP-40, 0.5% sodium deoxycholate, 0.1% SDS with protease and phosphatase inhibitors). […] Total tissue lysates were analyzed with anti-PPAR gamma, phospho-CDK5 (Y15), CDK5 and p35 antibodies (Santa Cruz)."}, "[2]": {"molecular_target": "T2, PPAR gamma (TNF-α-mediated phosphorylation) (Mus musculus, UniProt P37238)", "T2 construct": "expressed in transfected cells; host or cells: HEK-293", "T2 sequence (P37238 1-505)": "T1 sequence (P37238 1-505)", "assay": "TNF-α-induced phosphorylation of PPAR gamma in HEK-293 cells", "type": "cell-based", "settings": "30 nM; FIG. 5E", "protocol": "HEK-293 cells expressing CDK5 or PPAR gamma were collected after transfection. Total cell lysates were incubated with FLAG M2 agarose (Sigma) at 4° C. Immunoprecipitates or total cell lysates were analyzed with anti-CDK substrate, FLAG or HA (Roche) antibodies. Differentiated 3T3-L1 adipocytes were treated with TNF-α (50 ng/ml), IL-6 (50 ng/ml), IL-10 (50 ng/ml) or FFAs (400 μM palmitic acid and oleic acid mixtures) for the indicated times, and cell lysates were analyzed with phospho-specific or PPAR gamma antibodies. 3T3-L1 adipocytes were pre-treated with various PPAR gamma ligands, and incubated with TNF-α. […] Phosphorylation of PPAR gamma on Ser112 or Ser273 was detected by phospho-specific antibodies (Ser112, Millipore, MAB3632)."}, "[3]": {"molecular_target": "T3, cdk5 (Rb protein as substrate) (Homo sapiens, UniProt Q00535)", "T3 construct": "purchased Millipore or Cell Signaling Technology", "assay": "In vitro CDK5 kinase assay with Rb as substrate", "type": "biochemical", "settings": "selectivity control", "experimental": "Kinase assays were performed using an active cdk5/p35 protein and recombinant PPAR gamma protein as a substrate in kinase buffer in the presence of ATP. The reaction was stopped by adding sample buffer. Samples were then subjected to SDS-PAGE, and detected by CDK substrate antibody. In particular, active cdk5/p35, cdk1/cdc2, cdk2/cyclin A, cdk2/cyclin E or cdk4/cyclin D1 kinases were purchased from Millipore or Cell Signaling Technology. In vitro CDK kinase assay was performed according to the manufacturer's instructions (Cell Signaling Technology). Briefly, 1 μg of immuno-purified WT or S273A mutant of PPAR gamma were incubated with active CDK kinase in kinase assay buffer (25 mM Tris-HCl pH 7.5, 5 mM beta-glycerophosphate, 2 mM dithiothreitol (DTT), 0.1 mM Na3VO4, 10 mM MgCl2) containing 20 μM ATP for 15 min at 30° C. Positive control for assay, purified histone H1 (Millipore) or Rb (Cell Signaling Technology) were used. Several PPAR gamma ligands were pre-incubated with substrates for 30 min, and the assay was performed. Phosphorylation of substrates after SDS-PAGE was analyzed with anti-CDK substrate antibody (Cell Signaling Technology)."}, "[4]": {"molecular_target": "T4, PPAR gamma (PPAR transcriptional response element) (Mus musculus, UniProt P37238)", "T4 construct": "expressed in transfected cells; host or cells: HEK-293", "T4 sequence (P37238 1-505)": "T1 sequence (P37238 1-505)", "T4 sequence (P19793 1-462 partner)": "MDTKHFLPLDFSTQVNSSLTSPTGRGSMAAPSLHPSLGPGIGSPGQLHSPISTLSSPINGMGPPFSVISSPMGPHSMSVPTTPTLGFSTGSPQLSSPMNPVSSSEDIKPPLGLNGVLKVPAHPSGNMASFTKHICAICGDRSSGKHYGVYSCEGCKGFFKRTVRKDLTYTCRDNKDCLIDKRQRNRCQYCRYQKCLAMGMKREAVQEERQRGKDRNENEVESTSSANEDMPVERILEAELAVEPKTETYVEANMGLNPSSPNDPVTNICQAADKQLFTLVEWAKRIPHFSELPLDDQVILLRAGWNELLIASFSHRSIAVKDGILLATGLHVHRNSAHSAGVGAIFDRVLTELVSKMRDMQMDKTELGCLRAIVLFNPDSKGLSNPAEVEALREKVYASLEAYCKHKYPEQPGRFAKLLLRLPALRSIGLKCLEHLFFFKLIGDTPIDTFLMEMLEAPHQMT", "assay": "Reporter gene assay, PPAR-derived reporter gene in HEK-293 cells", "type": "cell-based", "experimental": "In some examples, HEK-293 cells were seeded in 12-well plates at 1.5×10^5 cells/well. HEK-293 cells were transfected with pDR-1 (3×, based on the UCP1 PPAR gamma recognition site)-luciferase reporter plasmid, PPAR gamma, RXRa and pRL-renillin using Lipofectamine 2000 (Invitrogen). […] The cells were harvested and reporter gene assays were carried out using the Dual-Luciferase kit (Promega). Luciferase activity was normalized to renillia activity."}, "adipogenesis": {"system": "adipogenesis", "settings": "cited from earlier work"}, "[5]": {"molecular_target": "T5, cdk5-mediated phosphorylation of PPAR gamma in adipose tissue (Mus musculus, UniProt P37238)", "T5 construct": "For tissue lysates, WAT from mice was homogenized in RIPA buffer; from tissue; host or cells: white adipose tissue of C57BL/6J mice on high fat diet", "T5 sequence (P37238 1-505)": "T1 sequence (P37238 1-505)", "assay": "Phosphorylation of PPAR gamma in adipose tissue (WAT) of treated high-fat fed mice", "type": "in vivo", "settings": "10 mg/kg for 7 days, FIG. 9D", "protocol": "For tissue lysates, WAT from mice was homogenized in RIPA buffer (50 mM Tris pH7.5, 150 mM NaCl, 1% NP-40, 0.5% sodium deoxycholate, 0.1% SDS with protease and phosphatase inhibitors). […] Total tissue lysates were analyzed with anti-PPAR gamma, phospho-CDK5 (Y15), CDK5 and p35 antibodies (Santa Cruz). Phosphorylation of PPAR gamma on Ser112 or Ser273 was detected by phospho-specific antibodies (Ser112, Millipore, MAB3632).\n4 to 5-week old male C57BL/6J mice were obtained from the Jackson Laboratory."}, "[6]": {"system": "PPAR gamma-null fibroblasts expressing WT PPAR gamma", "assay": "Microarray analysis of differentiated PPAR gamma-null fibroblasts expressing wild type PPAR gamma", "type": "cell-based, mouse", "settings": "1 μM, 24 hours; FIG. 5F", "text": "To create refined gene sets regulated by cdk5 phosphorylation of PPAR gamma, p-value as well as fold-change of gene expression in WT versus S273A mutant cells was first calculated, and—log p-value versus log2 fold-change was plotted."}, "mice [7]": {"system": "mice", "settings": "Acton et al. 2005; cited from earlier work"}, "mice [8]": {"system": "mice", "assay": "Whole body oxygen consumption (CLAMS) in treated mice", "type": "in vivo", "settings": "10 mg/kg for 10 days"}, "[9]": {"molecular_target": "T6, cdk5-mediated phosphorylation of PPAR gamma (serine 273) (Mus musculus, UniProt P37238)", "T6 construct": "FLAG (N); made in house", "T6 sequence (P37238 1-505)": "T1 sequence (P37238 1-505)", "assay": "In vitro CDK5 kinase assay with cdk5/p35 and PPAR gamma as substrate", "type": "biochemical, murine", "settings": "FIG. 5B, FIG. 6", "protocol": "Kinase assays were performed using an active cdk5/p35 protein and recombinant PPAR gamma protein as a substrate in kinase buffer in the presence of ATP. The reaction was stopped by adding sample buffer. Samples were then subjected to SDS-PAGE, and detected by CDK substrate antibody. In particular, active cdk5/p35, cdk1/cdc2, cdk2/cyclin A, cdk2/cyclin E or cdk4/cyclin D1 kinases were purchased from Millipore or Cell Signaling Technology. In vitro CDK kinase assay was performed according to the manufacturer's instructions (Cell Signaling Technology). […] Positive control for assay, purified histone H1 (Millipore) or Rb (Cell Signaling Technology) were used. Several PPAR gamma ligands were pre-incubated with substrates for 30 min, and the assay was performed. Phosphorylation of substrates after SDS-PAGE was analyzed with anti-CDK substrate antibody (Cell Signaling Technology)."}}, "note": "Entries after “also recorded” stand apart in the source; their conditions may differ.", "data": [{"smiles": "CN(CCOc1ccc(CC2SC(=O)NC2=O)cc1)c1ccccn1", "note": "(stereo not drawn) [rosiglitazone]", "values": [{"measurement": "body weight", "setting": "high-fat fed mice", "result": "without inducing changes in body weight"}]}, {"smiles": "O=C(Nc1ccccc1)c1cc([N+](=O)[O-])ccc1Cl", "note": "[GW 9662]", "values": [{"measurement": "effect of antagonist on rosiglitazone inhibition of PPAR gamma phosphorylation", "setting": "[1]", "result": "completely blocked this effect of rosiglitazone"}]}, {"smiles": "COc1ccc(C(=O)n2c(C)c(Cc3cccc(O[C@@H](C)C(=O)O)c3)c3cc(OC(F)(F)F)ccc32)cc1", "note": "[MRL24]", "values": [{"measurement": "block of TNF-α-mediated phosphorylation of PPAR gamma", "setting": "[2]", "result": "blocked the TNF-α-mediated phosphorylation of PPAR gamma essentially completely"}, {"measurement": "inhibition of cdk5 phosphorylation of Rb", "setting": "[3]", "result": "retained full ability to phosphorylate Rb"}, {"measurement": "agonist activity on PPAR gamma at 30 nM", "setting": "[4]; 30 nM, same cells as phosphorylation test", "result": "essentially undetectable agonist activity"}, {"measurement": "agonist activity on a PPAR transcriptional response element", "setting": "[4]; compared to rosiglitazone", "result": "very weak agonist activity; also recorded: only a small fraction of the agonist activity of rosiglitazone"}, {"measurement": "ability to promote adipogenesis", "setting": "adipogenesis", "result": "virtually no ability to promote adipogenesis"}, {"measurement": "cdk5-mediated phosphorylation of PPAR gamma in adipose tissue", "setting": "[5]", "result": "reduced the cdk5-mediated phosphorylation of PPAR gamma in the adipose tissue of every mouse"}, {"measurement": "expression of gene cluster \"c\" (genes increased by the cdk5 site mutation)", "setting": "[6]", "result": "corresponded remarkably well to the gene set induced by the mutation in the cdk5 site of PPAR gamma"}, {"measurement": "expression of gene group \"a\" (genes activated by cdk5 phosphorylation of PPAR gamma)", "setting": "[6]", "result": "suppressed"}, {"measurement": "anti-diabetic activity", "setting": "mice [7]", "result": "excellent anti-diabetic activity in mice"}, {"measurement": "whole body oxygen consumption", "setting": "mice [8]", "result": "selectively increase whole body oxygen consumption in vivo"}, {"measurement": "blocking of cdk5-mediated phosphorylation of PPAR gamma", "setting": "[9]", "result": "very effective at blocking the cdk5-mediated phosphorylation of PPAR gamma"}, {"measurement": "fasting insulin levels", "setting": "high-fat fed mice", "result": "reduced fasting insulin levels"}, {"measurement": "glucose tolerance", "setting": "high-fat fed mice", "result": "dramatically improved glucose tolerance"}]}]}
